Assay results from US20250115578A1, “AROMATIC FUSED RING NAV1.8 INHIBITOR, AND USE THEREOF” (CHENGDU KANGHONG PHARMACEUTICAL CO., LTD., priority 2022, published 2025).
≈ marks a conversion by molar mass, not a printed value.

Assays:
[1] = target: hNav1.8 (Homo sapiens (Human), UniProt Q9Y5Y9); assay: Manual patch clamp, Method 1 (CHO cell line stably expressing hNav1.8); type: cell-based; conditions: for inhibition at 0.01 µM: 10 nM; for inhibition at 0.01 µM / inhibition at 0.1 µM: Method 1, CHO-hNav1.8, read-out: Inhibition rate of hNav1.8; for inhibition at 0.1 µM: 100 nM; for IC50: Method 1, CHO-hNav1.8, manual patch clamp, resting state, read-out: IC50 inhibitory activity against hNav1.8
Excerpt: The patch clamp technique is known as the “gold standard” for studying ion channels, and it uses glass microelectrodes to seal the cell membrane to measure the currents of various membrane channel. […] Patch clamp technology can evaluate the inhibition strength of different compounds on different states of Navs by measuring the changes of membrane channel currents after different compounds bind to different states of Navs.
The representative compounds of the present invention used stable CHO or HEK293 cell lines transfected with specific ion channels to measure the effect of the compounds on Nav1.8 currents by manual patch clamp test, to evaluate their inhibition strength.
The assay protocol of manual patch clamp is as follows:
CHO cell lines with stable expression of hNav1.8 were cultured in F12 medium containing 10% fetal bovine serum at a constant temperature of 37° C., and the carbon dioxide concentration was maintained at 5%. The old culture medium was removed and washed once with PBS, then 1 mL 0.25%-Trypsin-EDTA solution was added and incubated at 37° C. for 1 min. When the cells were detached from the bottom of the dish, 5 mL of the complete medium preheated at 37° C. was added, and the aggregated cells were separated by gently blowing with a straw. The cell suspension was transferred into a sterile centrifuge tube and centrifuged at 1000 rpm for 5 min to collect cells. The cells were then inoculated into a cell culture dish with a diameter of 6 cm (2.5×10^5 cells/petri dish, 5 mL medium) for expansion or maintenance.
In order to maintain the electrophysiological activity of the cells, the cell density must be less than 80%.
The cells were separated with 0.25%-Trypsin-EDTA before the assay, and 5×10^3 cells were seeded on a cover slip and cultured in a 24-well plate (final volume: 500 μL) for 18 h. Then the assay was conducted.
The compounds prepared in the examples of the present invention were dissolved in dimethyl sulfoxide (DMSO) and prepared into DMSO stock solution with a concentration of 10 mM for assay. And it was diluted to various concentrations with extracellular solution (140 mM NaCl, 3.5 mM KCl, 1 mM MgCl2, 2 mM CaCl2), 10 mM Glucose, 10 mM HEPES, 1.25 mM NaH2PO4, pH=7.4 regulated by NaOH), and the final concentration of DMSO in each compound sample was 0.10% or less.
A capillary glass pipette (BF150-86-10, Sutter Instruments) was pulled into a recording electrode with a micropipette puller (P97, Sutter Instruments). The micromanipulator (MP285, Sutter Instruments) was manipulated under an inverted microscope (IX71, Olympus) to make the recording electrode contact the cell and negative pressure suction was applied to achieve a GQ seal. Then, rapid capacitance compensation was performed, and negative pressure was continued, cell membrane was broken by suction, and whole cell recording mode was formed. Then the slow capacitance was compensated and the membrane capacitance and series resistance were recorded without leakage compensation. When the whole cell recording current was stabilized, dosing was initiated, and the next concentration was detected after acting 5 minutes of each drug concentration. Multiple cells were independently repeated during the recording period. All electrophysiological assays were performed at room temperature. Specifically, 6 concentrations (measuring IC50) or 2 concentrations (preliminary screening) were set for each compound, and the percentage of inhibition of sodium channels was determined by calculating the relative percentage of peak current generated before and after each concentration compound treated cells, and the IC50 value or percentage of inhibition at a specific concentration was calculated using IGOR pro software.

[2] = Assay of kinetic solubility; type: physicochemical; conditions: aqueous buffer, kinetic from dmso stock, pH 3.5 phosphate buffer, 25° C.
Description: The stock solutions of the test compound and the standard progesterone were prepared in DMSO at the concentration of 10 mM.
30 μL of stock solutions at 10 mM of the test compounds and standard substance were placed in order into their proper 96-well plate. 970 μL phosphate buffer at the specified pH was added to the proper vial of the sample plate. The assay was performed in duplicate. A stirring stick was added to each vial and the teflon/silicone plug was capped. The sample tray was then placed in the Eppendorf Thermomixer Comfort and shaken at 1100 RPM at 25° C. for 2 hours. After 2 hours, plugs were removed, a big magnet was used to remove the stirring sticks, and samples were transferred from the sample plate to the filter plate. Vacuum pump was used to create negative pressure and filtered the samples. Transferred 5 μL of the filtrate to the new sample plate, then added 5 μL DMSO and 490 μL water/acetonitrile (V/V=1/1) to dilute the solvent. The dilution factor may be adjusted according to the solubility values of the substances to be tested or the strength of its LC-MS signal response.
From the 10 mM DMSO stock solution, 15 μL of that was transferred into the empty plate and 485 μL DMSO was added to prepare a 300 μM standard solution. From the 300 μM standard solution plate, 5 μL of that was transferred to another empty plate and 5 μL phosphate buffer at specified pH and 490 μL water/acetonitrile (V/V=1/1) dilution solvent were added to the standard solution to get a final concentration of 3 μM. The concentration of the standard solution may be adjusted according to the strength of its LC-MS signal response.
The sample plate was placed into the sample tray of the automatic sampler and the samples were evaluated by LC-MS/MS analysis.
All calculations were carried out by Microsoft Excel.
The sample filtrate was analyzed and quantified against a standard of known concentrations using LC-MS spectral peaks to identify and quantify. The solubility values of the control drug and the compounds to be tested were calculated as the following formula: • [Sample]: concentration of the sample • AREASample: peak area of the sample • INJ VOLStd: standard sample injection volume • DFSample: sample dilution factor • [STD]: standard substance concentration • AREAStd: peak area of standard substance • INJ VOLSample: sample injection volume

[3] = Stability assay for human liver microsomes in vitro; type: in vitro ADME; conditions: 1 μM compound, 0.5 mg/mL liver microsomes, read-out: Human liver microsome stability T1/2
Description: • Human liver microsomes, purchased from Corning or Xenotech, stored in a −80° C. refrigerator. • Nicotinamide adenine dinucleotide phosphate (NADPH), Chem-impex international, 00616 • Control compounds: testosterone, diclofenac, propafenone
• Water bath (HH-60, Guohua, Changzhou, China) • Pipette workstation (PP-550DS, Apricot, Covina, USA) • Centrifuge (5810R, Eppendorf, Hamburg, Germany) • Mass Spectrometer (Sciex API 4000, Singapore) • High Performance Liquid Chromatography (LC 20-AD, Shimadzu, Kyoto, Japan) • Sampler (ADDA, Apricot Designs, California, USA)
• Stock solution: 10 mM in DMSO • Working solution concentration preparation: 10 mM stock solution was diluted to 100 μM with 100% acetonitrile (organic phase content: 99% ACN, 1% DMSO)
Two 96-well incubation plates were named T60 incubation plate and NCF60 incubation plate.
445 μL microsomal working solution (liver microsomal protein concentration: 0.56 mg/mL) was added to the T60 and NCF60 incubation plates respectively, then the incubation plates above were placed in a water bath at 37° C. for pre-incubation approximately 10 minutes.
After the pre-incubation finished, 5 μL of the test compound working solution was added to the T60 and NCF60 incubation plates respectively, and mixed well. 50 μL potassium phosphate buffer was added to each well on the NCF60 incubation plate to start the reaction. 180 μL termination solution (acetonitrile solution containing 200 ng/mL tolbutamide and 200 ng/mL labetalol) and 6 uL working solution of NADPH regeneration system were added to the TO termination plate, and 54 μL samples were removed from the T60 incubation plate to the TO termination plate (TO sample generated). The reaction was initiated by adding 44 μL of NADPH regenerating system working solution per well on the T60 incubation plate. Only 54 μL microsomal working solution, 6 uL NADPH regeneration system working solution, and 180 μL termination solution were added to the Blank plate. Therefore, in the samples of the test or control compounds, the final reaction concentration of the compounds, testosterone, diclofenac and propafenone was 1 μM, the concentration of the liver microsomes was 0.5 mg/mL, and the final concentration of DMSO and acetonitrile in the reaction system was 0.01% (v/v) and 0.99% (v/v), respectively.
After incubation for an appropriate time (e.g. 5, 10, 20, 30, and 60 minutes), 180 μL of termination solution (acetonitrile solution containing 200 ng/mL tolbutamide and 200 ng/mL labetalol) was added to the sample hole of each termination plate, respectively. After that, 60 μL sample was removed from the T60 incubation plate to terminate the reaction.
All sample plates were shaken evenly and centrifuged at 3220×g for 20 min. Then 80 μL supernatant was taken from each well and diluted to 240 μL pure water for LC-MS/MS analysis.
All samples were injected for analysis.

Sequence of hNav1.8 (Q9Y5Y9 whole entry): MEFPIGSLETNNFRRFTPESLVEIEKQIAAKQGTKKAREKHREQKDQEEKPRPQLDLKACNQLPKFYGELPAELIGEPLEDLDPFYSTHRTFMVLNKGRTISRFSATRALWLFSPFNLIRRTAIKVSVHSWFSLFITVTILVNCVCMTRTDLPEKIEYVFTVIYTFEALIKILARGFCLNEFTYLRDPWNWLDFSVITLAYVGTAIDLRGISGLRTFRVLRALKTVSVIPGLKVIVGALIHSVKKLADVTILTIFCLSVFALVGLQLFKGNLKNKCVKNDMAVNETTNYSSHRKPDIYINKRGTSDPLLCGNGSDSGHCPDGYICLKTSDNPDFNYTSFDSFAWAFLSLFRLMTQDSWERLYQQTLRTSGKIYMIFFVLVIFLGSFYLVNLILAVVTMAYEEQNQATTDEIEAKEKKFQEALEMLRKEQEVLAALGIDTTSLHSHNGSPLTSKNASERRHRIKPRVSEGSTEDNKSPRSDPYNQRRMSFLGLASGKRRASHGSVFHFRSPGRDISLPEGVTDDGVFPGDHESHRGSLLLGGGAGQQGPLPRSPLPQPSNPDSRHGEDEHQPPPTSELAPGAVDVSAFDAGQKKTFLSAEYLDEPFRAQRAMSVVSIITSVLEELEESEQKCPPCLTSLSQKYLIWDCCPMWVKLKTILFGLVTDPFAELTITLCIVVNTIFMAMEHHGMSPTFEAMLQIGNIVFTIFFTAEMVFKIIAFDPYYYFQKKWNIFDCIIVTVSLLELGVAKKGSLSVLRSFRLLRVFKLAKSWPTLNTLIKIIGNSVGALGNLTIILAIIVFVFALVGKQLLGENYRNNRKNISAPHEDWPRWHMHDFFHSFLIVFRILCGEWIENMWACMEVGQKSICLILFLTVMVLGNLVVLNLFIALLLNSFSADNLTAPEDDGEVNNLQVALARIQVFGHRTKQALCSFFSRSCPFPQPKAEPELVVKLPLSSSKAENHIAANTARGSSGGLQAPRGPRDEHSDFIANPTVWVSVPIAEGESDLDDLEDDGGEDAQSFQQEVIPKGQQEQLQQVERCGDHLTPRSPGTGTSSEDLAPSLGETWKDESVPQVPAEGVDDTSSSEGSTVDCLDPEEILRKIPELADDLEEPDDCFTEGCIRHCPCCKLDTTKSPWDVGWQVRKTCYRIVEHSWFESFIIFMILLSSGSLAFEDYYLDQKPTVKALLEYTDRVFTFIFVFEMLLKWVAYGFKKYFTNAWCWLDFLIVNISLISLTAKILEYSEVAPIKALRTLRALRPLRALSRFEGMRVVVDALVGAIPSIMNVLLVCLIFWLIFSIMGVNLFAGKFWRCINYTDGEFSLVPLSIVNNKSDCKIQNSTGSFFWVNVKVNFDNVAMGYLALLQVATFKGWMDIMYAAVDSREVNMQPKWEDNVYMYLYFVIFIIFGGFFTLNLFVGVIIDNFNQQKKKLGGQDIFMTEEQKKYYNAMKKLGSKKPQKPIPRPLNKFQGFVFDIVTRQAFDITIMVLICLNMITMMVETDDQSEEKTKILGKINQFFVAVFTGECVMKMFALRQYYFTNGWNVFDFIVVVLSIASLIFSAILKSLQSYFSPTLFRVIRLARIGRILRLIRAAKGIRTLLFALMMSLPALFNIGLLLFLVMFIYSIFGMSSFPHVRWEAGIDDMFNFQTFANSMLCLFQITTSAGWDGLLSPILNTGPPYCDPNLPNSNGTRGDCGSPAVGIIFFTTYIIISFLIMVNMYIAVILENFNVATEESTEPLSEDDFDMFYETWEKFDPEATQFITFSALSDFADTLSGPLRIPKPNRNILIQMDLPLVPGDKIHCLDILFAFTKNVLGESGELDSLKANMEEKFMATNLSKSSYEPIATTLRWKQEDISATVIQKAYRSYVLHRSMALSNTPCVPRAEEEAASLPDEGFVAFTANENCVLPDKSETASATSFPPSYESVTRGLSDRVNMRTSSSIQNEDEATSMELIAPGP

| SMILES | inhibition at 0.01 µM [1] | inhibition at 0.1 µM [1] | solubility kinetic at 2 h [2] | half-life at 1 µM [3] | IC50 [1] |
| --- | --- | --- | --- | --- | --- |
| NC(=O)c1cc(NC(=O)c2nc3ccccc3cc2N2CCCC(F)(F)CC2)ccc1F [Example 11, N-(3-carbamoyl-4-fluorophenyl)-3-(4,4-difluoroazepan-1-yl) quinoline-2-carboxamide] | 15.3% | 72.8% | – | – | – |
| NC(=O)c1cccc(NC(=O)c2cc3cc(F)c(F)cc3nc2N2CCCC(F)(F)CC2)c1 [Example 12, N-(3-carbamoylphenyl)-2-(4,4-difluoroazepan-1-yl)-6,7-difluoroquinoline-3-carboxamide] | 95.8% | 100% | – | – | – |
| NS(=O)(=O)c1cccc(NC(=O)c2cc3ccccc3nc2N2CCCC(F)(F)CC2)c1 [Example 13, 2-(4,4-difluoroazepan-1-yl)-N-(3-sulfamoylphenyl)quinoline-3-carboxamide] | 95.6% | 99.7% | 3.38 µM (≈ 1.56 µg/mL) | – | – |
| O=C(Nc1ccc[n+]([O-])c1)c1nc2ccccc2nc1N1CCCC(F)(F)CC1 [Example 01] | 0.36% | 41.8% | – | > 2.42 h | – |
| NC(=O)c1cc(NC(=O)c2cc3cccnc3cc2N2CCCC(F)(F)CC2)ccn1 [Example 18, N-(2-carbamoylpyridin-4-yl)-7-(4,4-difluoroazepan-1-yl)quinoline-6-carboxamide] | -3.14% | 21.5% | – | – | – |
| O=C(Nc1cc[nH]c(=O)c1)c1nc2ccccc2nc1N1CCCC(F)(F)CC1 [Example 03, 3-(4,4-difluoroazepan-1-yl)-N-(2-carbonyl-1,2-dihydropyridin-4-yl)quinoxaline-2-carboxamide] | 19.7% | 70% | – | 1.32 h | – |
| O=C(Nc1cn[nH]c(=O)c1)c1nc2ccccc2nc1N1CCCC(F)(F)CC1 [Example 04, 3-(4,4-difluoroazepan-1-yl)-N-(6-carbonyl-1,6-dihydropyridazin-4-yl)quinoxaline-2-carboxamide] | 3.33% | 46% | – | 1.33 h | – |
| NS(=O)(=O)c1cc(NC(=O)c2cc3cc(F)c(F)cc3nc2N2CCCC(F)(F)CC2)ccn1 [Example 17, 2-(4,4-difluoroazepan-1-yl)-6,7-difluoro-N-(2-sulfamoylpyridine-4-yl)quinoline-3-carboxamide] | 98.3% | 100% | – | > 2.42 h | 0.095 nM |
| NC(=O)c1cc(NC(=O)c2nc3ccccc3cc2N2CCCC(F)(F)CC2)ccn1 [Example 15, N-(2-carbamoylpyridin-4-yl)-3-(4,4-difluoroazepan-1-yl) quinoline-2-carboxamide] | 15.4% | 49.9% | – | – | – |

The next lines start with the values.

| inhibition at 0.01 µM [1] | inhibition at 0.1 µM [1] | solubility kinetic at 2 h [2] | half-life at 1 µM [3] | IC50 [1] | SMILES |
| --- | --- | --- | --- | --- | --- |
| 0.44% | 16.6% | – | – | – | NC(=O)c1cc(NC(=O)c2cc3cccnc3cc2N2CCCC(F)(F)CC2)ccc1F [Example 19, N-(3-carbamoyl-4-fluorophenyl)-7-(4,4-difluoroazepan-1-yl)quinoline-6-carboxamide] |
| 38.1% | 84.7% | < 1.56 µM | – | – | Cc1cc(F)ccc1Oc1cc(C(F)(F)F)ccc1C(=O)Nc1cc[nH]c(=O)c1 [Example 32, 2-(4-fluoro-2-methylphenoxy)-N-(2-carbonyl-1,2-dihydropyridin-4-yl)-4-(trifluoromethyl)benzamide, reference compound] |
| 19.5% | 81.1% | – | – | – | NC(=O)c1cc(NC(=O)c2nc3ccc(Cl)cc3cc2N2CCCC(F)(F)CC2)ccn1 [Example 20, N-(2-carbamoylpyridin-4-yl)-6-chloro-3-(4,4-difluoroazepan-1-yl)quinoline-2-carboxamide] |
| – | – | – | 0.943 h | 0.36 nM | NC(=O)c1cc(NC(=O)c2cc3cc(F)c(F)cc3nc2N2CCCC(F)(F)CC2)ccc1F [Example 21, N-(3-carbamoyl-4-fluorophenyl)-2-(4,4-difluoroazepan-1-yl)-6,7-difluoroquinoline-3-carboxamide] |
| – | 90.7% | – | – | – | COc1ccc2cc(C(=O)Nc3ccnc(C(N)=O)c3)c(N3CCCC(F)(F)CC3)nc2c1 [Example 22, N-(2-carbamoylpyridin-4-yl)-2-(4,4-difluoroazepan-1-yl)-7-methoxyquinoline-3-carboxamide] |
